In test [1] the target is T1, human factor XIa (Homo sapiens, UniProt P03951).
T1 construct: purchased Kordia
Kind of test: Measurement of FXIa inhibition (fluorogenic peptide substrate Boc-Glu(OBzl)-Ala-Arg-AMC). The note with it: factor XIa from Kordia, 15 min preincubation, 30 min at 22° C., fluorescence. The format is biochemical. As for the experimental part: To determine the factor XIa inhibition of the substances according to the invention, a biochemical test system is used which utilizes the reaction of a peptidic factor XIa substrate to determine the enzymatic activity of human factor XIa. Here, factor XIa cleaves from the peptic factor XIa substrate the C-terminal aminomethylcoumarin (AMC), the fluorescence of which is measured. The determinations are carried out in microtitre plates.
Test substances are dissolved in dimethyl sulphoxide and serially diluted in dimethyl sulphoxide (3000 μM to 0.0078 μM; resulting final concentrations in the test: 50 μM to 0.00013 μM). In each case 1 μl of the diluted substance solutions are placed into the wells of white microtitre plates from Greiner (384 wells). Subsequently, the following are added successively: 20 μl of assay buffer (50 mmol/l Tris buffer pH 7.4; 100 mmol/l sodium chloride; 5 mmol/l calcium chloride; 0.1% bovine serum albumin) and 20 μl of factor XIa from Kordia (0.45 nM in assay buffer). After 15 min of incubation, the enzyme reaction is started by addition of 20 μl of the factor XIa substrate Boc-Glu(OBzl)-Ala-Arg-AMC dissolved in assay buffer (10 μM in assay buffer) from Bachem, the mixture is incubated at room temperature (22° C.) for 30 min and fluorescence is then measured (excitation: 360 nm, emission: 460 nm). The measured emissions of the test batches with test substance are compared to those of control batches without test substance (only dimethyl sulphoxide instead of test substance in dimethyl sulphoxide), and IC50 values are calculated from the concentration/activity relationships.

Test [2] has as its system human and animal plasma. Kind of test: Determination of the anticoagulatory activity: activated partial thromboplastin time (aPTT) in plasma. Type of test: biochemical. The note with it: in vitro in plasma, C.K. Prest kit, 3 min at 37° C. On the procedure: The anticoagulatory activity of the test substances is determined in vitro in human and animal plasma (for example mouse, rat, rabbit, pig and dog plasma). To this end, blood is drawn off in a mixing ratio of sodium citrate/blood of 1:9 using a 0.11 molar sodium citrate solution as receiver. Immediately after the blood has been drawn off, it is mixed thoroughly and centrifuged at about 4000 g for 15 minutes. The supernatant is pipetted off.
The activated partial thromboplastin time (aPTT) is determined in the presence of varying concentrations of test substance or the corresponding solvent using a commercial test kit (C.K. Prest from Diagnostica Stago). The test compounds are incubated with the plasma and the PTT reagent (cephalin, kaolin) at 37° C. for 3 minutes. Coagulation is then started by addition of a 25 mM aqueous calcium chloride solution, and the time when coagulation occurs is determined. The concentration of test substance which brings about a 1.5-fold extension of the aPTT is determined Activity data from this test are listed in Table B below: […]

Structures are written as SMILES. Counter-ions that a name gives are not always drawn.

We go through 16 compounds from patent US20160280688A1, “SUBSTITUTED PHENYLALANINE DERIVATIVES” (BAYER PHARMA AKTIENGESELLSCHAFT, priority 2013, published 2016).

T1 sequence (P03951 388-625 limits assumed): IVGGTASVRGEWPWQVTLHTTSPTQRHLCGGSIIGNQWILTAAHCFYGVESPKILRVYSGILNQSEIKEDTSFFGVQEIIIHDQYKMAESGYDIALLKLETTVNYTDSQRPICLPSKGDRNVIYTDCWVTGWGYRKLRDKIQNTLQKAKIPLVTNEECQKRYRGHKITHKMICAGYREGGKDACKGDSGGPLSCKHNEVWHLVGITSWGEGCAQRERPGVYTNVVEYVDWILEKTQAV
T1 sequence (P03951 19-387 partner limits assumed): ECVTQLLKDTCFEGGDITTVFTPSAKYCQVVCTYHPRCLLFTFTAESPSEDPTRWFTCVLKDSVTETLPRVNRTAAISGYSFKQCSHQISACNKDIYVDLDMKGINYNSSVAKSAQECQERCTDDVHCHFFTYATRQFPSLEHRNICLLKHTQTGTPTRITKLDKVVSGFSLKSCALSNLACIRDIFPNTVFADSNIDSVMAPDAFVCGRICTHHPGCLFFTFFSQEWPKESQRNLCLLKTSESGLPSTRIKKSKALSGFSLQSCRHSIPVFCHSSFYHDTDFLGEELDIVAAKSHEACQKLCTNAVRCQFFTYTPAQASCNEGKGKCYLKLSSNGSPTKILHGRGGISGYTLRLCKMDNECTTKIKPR

Take `NCC1CCC(C(=O)N[C@@H](Cc2ccc(-c3cnc4[nH]ccc4c3)cc2)C(=O)Nc2ccc(-c3nn[nH]n3)cc2)CC1` (stereo partly drawn) [Example 2, N-alpha-{[trans-4-(Aminomethyl)cyclohexyl]carbonyl}-4-(1H-pyrrolo[2,3-b]pyridin-5-yl)-N-[4-(2H-tetrazol-5-yl)phenyl]-L-phenylalaninamide hydrochloride]: the midpoint of inhibition in test [1], the IC50, lay at 2.6 nM.

For the compound `NCC1CCC(C(=O)N[C@@H](Cc2ccc(-c3cncc4ccccc34)cc2)C(=O)Nc2ccc(-c3nn[nH]n3)cc2)CC1` (stereo partly drawn) [Example 3, N-alpha-{[trans-4-(Aminomethyl)cyclohexyl]carbonyl}-4-isoquinolin-4-yl-N-[4-(2H-tetrazol-5-yl)phenyl]-L-phenylalaninamide hydrochloride], the “aPTT (concentration of test substance which brings about a 1.5-fold extension of the aPTT)” value in test [2] was found to be 0.14 µmol/L. The same compound came in with an IC50 in test [1] of 1.4 nM.

Turning to `Cn1c(=O)[nH]c2ccc(-c3ccc(C[C@H](NC(=O)C4CCC(CN)CC4)C(=O)Nc4ccc(-c5nn[nH]n5)cc4)cc3)cc21` (stereo partly drawn) [Example 4, N-alpha-{[trans-4-(Aminomethyl)cyclohexyl]carbonyl}-4-(3-methyl-2-oxo-2,3-dihydro-1H-benzimidazol-5-yl)-N-[4-(2H-tetrazol-5-yl)phenyl]-L-phenylalaninamide hydrochloride], in test [2], the “aPTT (concentration of test substance which brings about a 1.5-fold extension of the aPTT)” value is 0.24 µmol/L. The compound further registered an IC50 in test [1] of 5.6 nM.

In the case of `Cn1cc(-c2ccc(C[C@H](NC(=O)C3CCC(CN)CC3)C(=O)Nc3ccc(-c4nn[nH]n4)cc3)cc2)c(=O)[nH]c1=O` (stereo partly drawn) [Example 5, N-alpha-{[trans-4-(Aminomethyl)cyclohexyl]carbonyl}-4-(1-methyl-2,4-dioxo-1,2,3,4-tetrahydropyrimidin-5-yl)-N-[4-(2H-tetrazol-5-yl)phenyl]-L-phenylalaninamide hydrochloride], in test [2], the “aPTT (concentration of test substance which brings about a 1.5-fold extension of the aPTT)” value amounted to 0.06 µmol/L. 5.1 nM corresponded to half-maximal inhibition in test [1] (IC50).

`NC[C@H]1CC[C@H](C(=O)N[C@@H](Cc2ccc(-c3cccc4[nH]ncc34)cc2)C(=O)Nc2ccc(-c3nn[nH]n3)cc2)CC1` [Example 6, N-alpha-{[trans-4-(Aminomethyl)cyclohexyl]carbonyl}-4-(1H-indazol-4-yl)-N-[4-(2H-tetrazol-5-yl)phenyl]-L-phenylalaninamide hydrochloride]: in test [2], the “aPTT (concentration of test substance which brings about a 1.5-fold extension of the aPTT)” value came out at 0.41 µmol/L. Further, half-maximal inhibition in test [1] (IC50) was put at 9 nM.

Turning to `Cc1nc2cc(-c3ccc(C[C@H](NC(=O)[C@H]4CC[C@H](CN)CC4)C(=O)Nc4ccc(-c5nn[nH]n5)cc4)cc3)ccc2[nH]1` [Example 7, N-alpha-{[trans-4-(Aminomethyl)cyclohexyl]carbonyl}-4-(2-methyl-1H-benzimidazol-5-yl)-N-[4-(2H-tetrazol-5-yl)phenyl]-L-phenylalaninamide hydrochloride], half-maximal inhibition in test [1] (IC50) required 4.6 nM.

`NC[C@H]1CC[C@H](C(=O)N[C@@H](Cc2ccc(-c3cccc4[nH]nc(N)c34)cc2)C(=O)Nc2ccc(-c3nn[nH]n3)cc2)CC1` [Example 10, 4-(3-Amino-1H-indazol-4-yl)-N-alpha-{[trans-4-(aminomethyl)cyclohexyl]carbonyl}-N-[4-(2H-tetrazol-5-yl)phenyl]-L-phenylalaninamide hydrochloride] yielded an IC50 in test [1] of 1.9 nM.

In turn, `Cn1cc(-c2ccc(C[C@H](NC(=O)[C@H]3CC[C@H](CN)CC3)C(=O)Nc3ccc(-c4nn[nH]n4)cc3)cc2)c(=O)n(C)c1=O` [Example 11, N-alpha-{[trans-4-(Aminomethyl)cyclohexyl]carbonyl}-4-(1,3-dimethyl-2,4-dioxo-1,2,3,4-tetrahydropyrimidin-5-yl)-N-[4-(2H-tetrazol-5-yl)phenyl]-L-phenylalaninamide hydrochloride] showed a 50% inhibitory concentration (IC50) in test [1] of 3.2 nM.

Consider `NCCn1cnc2cc(-c3ccc(C[C@H](NC(=O)C4CCC(CN)CC4)C(=O)Nc4ccc(-c5nn[nH]n5)cc4)cc3)ccc21` (stereo partly drawn) [Example 13, 4-[1-(2-Aminoethyl)-1H-benzimidazol-5-yl]-N-alpha-{[trans-4-(aminomethyl)cyclohexyl]-carbonyl]-N-[4-(2H-tetrazol-5-yl)phenyl]-L-phenylalaninamide hydrochloride], for which the “aPTT (concentration of test substance which brings about a 1.5-fold extension of the aPTT)” value in test [2] turned out to be 0.18 µmol/L. The IC50 in test [1] worked out at 6.6 nM.

Regarding `NC[C@H]1CC[C@H](C(=O)N[C@@H](Cc2ccc(-c3c[nH]c(=O)[nH]c3=O)cc2)C(=O)Nc2ccc(-c3nn[nH]n3)cc2)CC1` [Example 14, N-alpha-{[trans-4-(Aminomethyl)cyclohexyl]carbonyl}-4-(2,4-dioxo-1,2,3,4-tetrahydropyrimidin-5-yl)-N-[4-(2H-tetrazol-5-yl)phenyl]-L-phenylalaninamide hydrochloride], the IC50 in test [1] came to 6.8 nM.

In test [1], `Cn1cnc2ccc(-c3ccc(C[C@H](NC(=O)[C@H]4CC[C@H](CN)CC4)C(=O)Nc4ccc(-c5nn[nH]n5)cc4)cc3)cc21` [Example 15, N-alpha-{[trans-4-(Aminomethyl)cyclohexyl]carbonyl}-4-(1-methyl-1H-benzimidazol-6-yl)-N-[4-(2H-tetrazol-5-yl)phenyl]-L-phenylalaninamide hydrochloride] registered a concentration for half-maximal inhibition (IC50) of 3.8 nM.

For the compound `Cn1cnc2cc(-c3ccc(C[C@H](NC(=O)[C@H]4CC[C@H](CN)CC4)C(=O)Nc4ccc(-c5nn[nH]n5)cc4)cc3)ccc21` [Example 16, N-alpha-{[trans-4-(Aminomethyl)cyclohexyl]carbonyl}-4-(1-methyl-1H-benzimidazol-5-yl)-N-[4-(2H-tetrazol-5-yl)phenyl]-L-phenylalaninamide hydrochloride], in test [1], the IC50 stood at 3.2 nM.

Turning to `NC[C@H]1CC[C@H](C(=O)N[C@@H](Cc2ccc(-c3cn(Cc4ccccc4)c(=O)[nH]c3=O)cc2)C(=O)Nc2ccc(-c3nn[nH]n3)cc2)CC1` [Example 17, N-alpha-{[trans-4-(Aminomethyl)cyclohexyl]carbonyl}-4-(1-benzyl-2,4-dioxo-1,2,3,4-tetrahydropyrimidin-5-yl)-N-[4-(2H-tetrazol-5-yl)phenyl]-L-phenylalaninamide hydrochloride], in test [1], the IC50 was found to be 0.5 nM.

For the compound `Cc1ccc2[nH]ncc2c1-c1ccc(C[C@H](NC(=O)[C@H]2CC[C@H](CN)CC2)C(=O)Nc2ccc(-c3nn[nH]n3)cc2)cc1` [Example 18, N-alpha-{[trans-4-(Aminomethyl)cyclohexyl]carbonyl}-4-(5-methyl-1H-indazol-4-yl)-N-[4-(2H-tetrazol-5-yl)phenyl]-L-phenylalaninamide hydrochloride], in test [1], the concentration for half-maximal inhibition (IC50) is 2.5 nM.

In the case of `Cc1nc2c(cc1-c1ccc(C[C@H](NC(=O)[C@H]3CC[C@H](CN)CC3)C(=O)Nc3ccc4[nH]c(=O)[nH]c4c3)cc1)NCCN2` [Example 28, N-alpha-{[trans-4-(Aminomethyl)cyclohexyl]carbonyl}-4-(6-methyl-1,2,3,4-tetrahydropyrido[2,3-b]pyrazin-7-yl)-N-(2-oxo-2,3-dihydro-1H-benzimidazol-5-yl)-L-phenylalaninamide hydrochloride], the “aPTT (concentration of test substance which brings about a 1.5-fold extension of the aPTT)” value in test [2] was found to be 1.42 µmol/L. In addition, in test [1], the IC50 was 37 nM.

For the compound `NC[C@H]1CC[C@H](C(=O)N[C@@H](Cc2ccc(-c3ccc4c(c3)CNC4=O)cc2)C(=O)Nc2ccc(-c3nc(C(F)(F)C(F)(F)C(=O)O)n[nH]3)cc2)CC1` [Example 29, 3-[5-(4-{[N-{[trans-4-(Aminomethyl)cyclohexyl]carbonyl}-4-(1-oxo-2,3-dihydro-1H-isoindol-5-yl)-L-phenylalanyl}amino}phenyl)-1H-1,2,4-triazol-3-yl]-2,2,3,3-tetrafluoropropanoic acid hydrochloride], the “aPTT (concentration of test substance which brings about a 1.5-fold extension of the aPTT)” value in test [2] is 0.28 µmol/L. This compound also gave an IC50 in test [1] of 3.9 nM.

By IC50 is commonly meant the midpoint of a concentration-inhibition curve. A high value points to weaker potency.
